Experimental data: patent US20240018470A1, “METHOD OF MANIPULATING PLURIPOTENCY IN CELLS” (YALE UNIVERSITY, priority 2022, published 2024)

Tests used:
Xenopus embryos [1] = test: Organ situs (left-right patterning) scoring in stage 45 tadpoles; assay type: in vivo, Xenopus tropicalis; conditions: for abnormal organ situs: kcnh6 depletion, injected at one-cell stage
Protocol: Stage 45 Xenopus embryos were paralyzed with benzocaine or tricaine and scored with a light stereomicroscope. Cardiac looping was determined by position of the outflow tract; D-loop: rightward, L-loop: leftward; A-loop: midline. Normal intestinal looping was scored as counter-clockwise rotation of the gut, while abnormal intestinal looping was scored as completely inverse gut rotation (clockwise) or complete lack of looping (un-looped). While a completely inverted gut rotation is clearly an abnormality of LR patterning, an unlooped gut is less clear so the present study only considered an unlooped gut as abnormal situs when combined with abnormal placement (left-sided or midline) of the gall bladder. To quantify total abnormal organ situs, each tadpole was counted only once, regardless of whether multiple organs were affected.
(§1) Normal embryonic medium is 1/9× modified Ringer's (MR) containing 11 mM NaCl, 0.2 mM KCl, 0.2 mM CaCl2), 0.1 mM Mg2Cl and 0.55 mM HEPES. To allow Ergtoxin to penetrate the embryos, the present study manually removed the vitelline envelope of stage 8 embryos and incubated embryos in 1/9×MR containing 50 nM Ergtoxin (Alomone STE-450) until stage 12. Embryos were then transferred back into 1/9×MR lacking Ergtoxin to develop until stage 45 in order to score organ situs. Barium chloride was applied into the medium at 20 mM and embryos were thoroughly rinsed in 1/9×MR after each incubation period for further development in Ba2+-free medium. For extracellular K^+ manipulations, the KCl concentration in 1/9×MR was modified from 0.2 mM (normal) to 20 mM (high) or 0 mM (low). The ionophore valinomycin (ACROS) and L-type VGCC blocker Nifedipine (ACROS) were diluted in DMSO as stock solutions and applied to embryos in 1/9×MR at 2 nM and 10 μM respectively. Treatments performed during gastrulation were applied from stage 8 through stage 12, and embryos were then rinsed thoroughly and returned into 1/9×MR. For rapamycin, the present study created a standard stock solution of 50 mg/ml in DMSO. The stock solution was diluted 1:2500 in the appropriate embryonic media (final 20 μg/ml). Embryos were treated at stage 7 and then fixed at stage 11 for in situ hybridization.
(§2) In experiments where embryos were evaluated for phenotypes and scored (gastrulation, left-right patterning, in situ hybridizations) the present study carried out three to five biological replicates and Fisher's exact test to evaluate statistical significance. The animal cap experiment was performed twice with a total score of four to eight animal caps per experiment. For the calcium transient analyses, data was collected from three to five embryos in each experiment in three independent experiments, and statistical analyses on GCaMP/mCherry fluorescence intensity as well as Ca^2+ transient area were performed using student's t-test. For whole cell electrophysiological recordings, three to five embryos (two cells each) were examined for their membrane potential and statistical significance was tested by student's t-test. Graphs were designed using GraphPad Prism software. Models were created with BioRender.com.

Xenopus embryos [2] = test: Gastrulation scoring (incomplete blastopore closure) in treated or kcnh6-depleted embryos; assay type: in vivo, Xenopus tropicalis; conditions: for inability to complete gastrulation: kcnh6 depletion, injected at one-cell stage
Protocol: All injections of Xenopus embryos were performed at the one-cell stage using a fine glass needle and Picospritzer system. A kcnh6 translation blocking (kcnh6 MO, 5′-[…]-3′, SEQ ID NO:1) and a scrambled morpholino oligonucleotide were obtained from Gene Tools LLC and injected at 10 ng to deplete kcnh6 or as a control, respectively. CRISPR sgRNAs for kcnh6 targeted either exon 3 or exon 4 based on the v7.1 gene model of the X. tropicalis genome (CRex3: 5′-[…]-3′, SEQ ID NO:2 and CRex4: 5′-[…]-3′, SEQ ID NO:3). CRISPR sgRNAs for cacna1c (5′-[…]-3′, SEQ ID NO:4) and cacna1g (5′-[…]-3′, SEQ ID NO:5) were designed from the v7.1 model of the Xenopus tropicalis genome. For F0 CRISPR knockdown, embryos were injected with 1.5 ng Cas9 Protein (PNA-Bio) and 400 pg of targeting sgRNA and raised to desired stages. […] Full length human KCNH6 (NM 030779.3; cloned in pCS107), GCaMP6 (subcloned in pCSDest) and mCherry cDNAs (Addgene #34935; in pCS2+), were used to generate capped mRNAs in vitro by first linearizing with appropriate restriction enzymes and then transcribing with the mMessage machine kit (Ambion). mRNAs were injected at 3 pg (human KCNH6), 150 pg (GCaMP6) and 150 pg (mCherry) per embryo. Embryos were raised at 21° C. to allow time for sufficient expression levels at blastula/gastrula stages.
as §1, §2

Xenopus embryos [3] = test: Whole mount in situ hybridization for germ layer and pluripotency markers; assay type: in vivo, Xenopus tropicalis; conditions: for expression of ectodermin and myf5 on co-depletion in kcnh6 depleted embryos: CRISPR co-depletion
Description: In order to generate a full-length antisense probe for X. tropicalis kcnh6, kcnh6 cDNA was cloned from stage 45 tadpole whole mRNA using primers […] ID NO:10) and […] ID NO:11) (XM_012952904.1). It was noted that kcnh6 had been misannotated as kcnh2 in the v7.1 model of the X. tropicalis genome (The present study used NCBI Annotation XP_012808358.2 to identify KCNH6). […] GRPs were dissected post fixation and prior to dehydration to detect dandy. To detect putative gene expression in the prospective endoderm (mixer, vegT, kcnh6) gastrula stage embryos were bisected to facilitate better probe access. Briefly, whole mount in situ hybridization of digoxigenin-labeled antisense probes was performed overnight, the labelled embryos were then washed, incubated with anti-digoxigenin-AP Fab fragments (Roche 11093274910), and signal was detected using BM-purple (Roche 11442074001). Normal embryonic medium is 1/9× modified Ringer's (MR) containing 11 mM NaCl, 0.2 mM KCl, 0.2 mM CaCl2), 0.1 mM Mg2Cl and 0.55 mM HEPES. […] For extracellular K^+ manipulations, the KCl concentration in 1/9×MR was modified from 0.2 mM (normal) to 20 mM (high) or 0 mM (low). […] For rapamycin, the present study created a standard stock solution of 50 mg/ml in DMSO. The stock solution was diluted 1:2500 in the appropriate embryonic media (final 20 μg/ml). […] In experiments where embryos were evaluated for phenotypes and scored (gastrulation, left-right patterning, in situ hybridizations) the present study carried out three to five biological replicates and Fisher's exact test to evaluate statistical significance. The animal cap experiment was performed twice with a total score of four to eight animal caps per experiment. […] For whole cell electrophysiological recordings, three to five embryos (two cells each) were examined for their membrane potential and statistical significance was tested by student's t-test. Graphs were designed using GraphPad Prism software. Models were created with BioRender.com.

[4] = test system: animal pole cells (prospective ectoderm); test: Intracellular Vm recordings in animal pole cells; assay type: in vivo, Xenopus tropicalis; conditions: high K^+ and ½ sodium replacement with choline; stage 9 animal pole
Description: For recordings, devitellinized, stage 10 kcnh6 or control MO injected embryos were mounted into non-toxic clay with their animal pole exposed and covered with 1/9×MR. To investigate the resting potential, animal pole cells were impaled with a high-impedance (˜70 Me), sharp microelectrode filled with 3 M KCl for intracellular recordings. The recordings were made using an Axon 200B amplifier and digitized using a Digidata 1320 digitizer. Jclamp software for Windows was used in current clamp mode. All electrodes were zeroed just before entry into the cells.
For the series of intracellular recordings in high K^+ and choline treated embryos, stage 8-9 embryos were impaled similarly with an electrode of […]. These recordings were made using a HEKA EPC10 amplifier. The present study used HEKA PatchMaster v2x67 software for Windows. […]
In experiments where embryos were evaluated for phenotypes and scored (gastrulation, left-right patterning, in situ hybridizations) the present study carried out three to five biological replicates and Fisher's exact test to evaluate statistical significance. […] For the calcium transient analyses, data was collected from three to five embryos in each experiment in three independent experiments, and statistical analyses on GCaMP/mCherry fluorescence intensity as well as Ca^2+ transient area were performed using student's t-test. […]

hESCs = test: hESC pluripotency marker immunofluorescence; assay type: cell-based, human; conditions: hESCs, rapamycin 100 nM, 5 days
Protocol: hESCs were grown in mTeSR1 ([…] Technologies) in tissue culture dishes coated with Matrigel (Corning; 1:200 in DMEM/F12) and kept at 37° C., 5% CO2. The cell lines used were ESI017 (ESIBIO) and H9.
Cells were dissociated with accutase and seeded onto 8 well imaging slides (ibidi 80826) at a density of 4-6×10^4/cm^2. Cells were seeded and maintained in Rock-inhibitor Y27672 (MCE; 10 μM) to increase survival and the uniformity of response. Treatments with 1 mM BaCl2 or 10 or 25 nM Ergtoxin or 100 nM rapamycin were initiated 4 hours after seeding. Differentiation was initiated 24 hours after seeding where indicated. To initiate differentiation, the media was replenished with/without BaCl2 or Ergtoxin and treated with the indicated growth factors or small molecules. Cells were incubated for the indicated times without media change before fixation.
Cells were fixed for 30 min in 4% paraformaldehyde, rinsed twice with DPBS (without Ca^2+ and Mg^2+, denoted DPBS^−/−), and blocked for 30 min at room temperature. The blocking solution contained 3% donkey serum and 0.1% Triton X-100 in 1×DPBS^−/−. After blocking, the cells were incubated with primary antibodies at room temperature for 2 hours. Antibodies and concentrations are listed below. Cells were washed three times with DPBST (1×DPBS^−/− with Tween 20) and incubated with secondary antibodies (AlexaFluor 488 A21206, AlexaFluor 555 A31570 and A21432, and AlexaFluor 647 A31571, Thermo Fisher; 1:500) and DAPI for 30 min at room temperature. After secondary antibody incubation, samples were washed in DPBST and then DPBS at room temperature.
Images were acquired using a 20×, NA 0.75 objective on an Olympus IX83 inverted epifluorescence microscope or an Olympus/Andor spinning disk confocal microscope. Cell segmentation was performed using ilastik software. This segmentation was cleaned (to remove debris and to separate merged cells) and mean nuclear protein intensities as well as standard errors were quantified using a custom MATLAB code. Nuclear intensities were normalized by DAPI to correct for intensity variation due to optics. […]

[5] = nifedipine-treated (10 μM) kcnh6 CR embryos
[6] = nifedipine-treated (10 μM) kcnh6 MO embryos

## [Ba+2].[Cl-].[Cl-] [Barium, Barium chloride]
Xenopus embryos [1]; depolarizing treatment at blastula/gastrula stages, scored at stage 45, ±SEM
  embryos with misplacement of organs relative to the left-right axis (defective organ situs): 23±2%
Xenopus embryos [2]; depolarizing treatment at blastula/gastrula stages (stage 8-12), barium chloride 20 mM or KCl 20 mM, ±SEM
  embryos that failed to complete gastrulation: 37±3%
Xenopus embryos [3]; depolarized embryos, stage 10
  markers of dorsal (gsc, nodal3) and ventral mesoderm (vent2): unaffected
  paraxial mesoderm fates (myoD, myf5, tbxt): lost

## C[N+](C)(C)CCO [choline]
[4]
  Vm: −41±4 mV

## COC(=O)C1=C(C)NC(C)=C(C(=O)OC)C1c1ccccc1[N+](=O)[O-] [nifedipine]
Xenopus embryos [3]; [5]
  embryos with absent ectodermin: 16±7%
  embryos with myf5 lost: 16±1%
Xenopus embryos [3]; [6]
  embryos with absent ectodermin: 17±3%
  embryos with myf5 lost: 18±5%

## CO[C@H]1C[C@@H]2CC[C@@H](C)[C@@](O)(O2)C(=O)C(=O)N2CCCC[C@H]2C(=O)O[C@H]([C@H](C)C[C@@H]2CC[C@@H](O)[C@H](OC)C2)CC(=O)[C@H](C)/C=C(\C)[C@@H](O)[C@@H](OC)C(=O)[C@H](C)C[C@H](C)/C=C/C=C/C=C/1C [rapamycin]
hESCs
  final cell numbers per well: reduce the final cell numbers per well

## CC(C)[C@@H]1NC(=O)[C@H](C)OC(=O)[C@@H](C(C)C)NC(=O)[C@@H](C(C)C)OC(=O)[C@H](C(C)C)NC(=O)[C@H](C)OC(=O)[C@@H](C(C)C)NC(=O)[C@@H](C(C)C)OC(=O)[C@H](C(C)C)NC(=O)[C@H](C)OC(=O)[C@@H](C(C)C)NC(=O)[C@@H](C(C)C)OC1=O [valinomycin]
Xenopus embryos [2]; kcnh6 CR embryos treated with valinomycin 2 nM, stage 8-12
  gastrulation defect in kcnh6 CR embryos: 16±7%

## CR-ex3: CRISPR sgRNA targeting kcnh6 exon 3, SEQ ID NO:2, injected with Cas9 protein (guide GGAATAAGGGGTGAAGACAGCGG; sgRNA injected with Cas9 protein, chemistry not given here; the letters are possibly those of the target site)
Xenopus embryos [1]
  abnormal organ situs: 43±12%
Xenopus embryos [2]
  inability to complete gastrulation: 27±4%

## CR-ex4: CRISPR sgRNA targeting kcnh6 exon 4, SEQ ID NO:3, injected with Cas9 protein (guide AGGGCGCTCTACATTTCCAATGG; sgRNA injected with Cas9 protein, chemistry not given here; the letters are possibly those of the target site)
Xenopus embryos [1]
  abnormal organ situs: 19±1%
Xenopus embryos [2]
  inability to complete gastrulation: 29±5%

## cacna1c: CRISPR sgRNA for cacna1c (Cav1.2; L-type), SEQ ID NO:4 (guide GCAGACGGGGGCAGCGCCATTGG; sgRNA chemistry not given here; the letters are possibly those of the target site)
Xenopus embryos [3]
  expression of ectodermin and myf5 on co-depletion in kcnh6 depleted embryos: rescued expression

## cacna1g: CRISPR sgRNA for cacna1g (Cav3.1; T-type), SEQ ID NO:5 (guide GGTTAATGGCTCTCAGCGGGCGG; sgRNA chemistry not given here; the letters are possibly those of the target site)
Xenopus embryos [3]
  expression of ectodermin and myf5 on co-depletion in kcnh6 depleted embryos: no rescue
